Measurements from patent US20060216235A1, “Cancerous disease modifying antibodies” (priority 2003, published 2006).

Assays:
MDA-MB-231 = experiment: Live/Dead cytotoxicity assay, hybridoma supernatants; settings: hybridoma supernatant, 5 days
MDA-MB-468 = experiment: as above; settings: hybridoma supernatant, 5 days
SKBR-3 = experiment: as above; settings: hybridoma supernatant, 5 days
MB-231 = test system: MB-231; design: key to the marks not given beside the values; settings: purified antibody, 5 days; four experiments in triplicate
MB-468 = test system: MB-468; design: key to the marks not given beside the values; settings: purified antibody, 5 days; four experiments in triplicate
MCF-7 = test system: MCF-7; design: key to the marks not given beside the values; settings: purified antibody, 5 days; four experiments in triplicate
HT-29 = test system: HT-29; design: key to the marks not given beside the values; settings: purified antibody, 5 days; four experiments in triplicate
SW1116 = settings: purified antibody, 5 days; four experiments in triplicate
SW620 = settings: purified antibody, 5 days; four experiments in triplicate
NCI H460 = test system: NCI H460; design: key to the marks not given beside the values; settings: purified antibody, 5 days; four experiments in triplicate
OVCAR = test system: OVCAR; design: key to the marks not given beside the values; settings: purified antibody, 5 days; four experiments in triplicate
PC-3 = test system: PC-3; design: key to the marks not given beside the values; settings: purified antibody, 5 days; four experiments in triplicate
CCD 27sk = settings: purified antibody, 5 days; four experiments in triplicate; non-cancer cells
Hs888 Lu = settings: purified antibody, 5 days; four experiments in triplicate; non-cancer cells

Row | SMILES | Cytotoxicity (%) MB-231 Average (MDA-MB-231) | Cytotoxicity (%) MB-468 Average (MDA-MB-468) | Cytotoxicity (%) SKBR-3 Average (SKBR-3) | cytotoxicity, BREAST MB-231 (MB-231) | cytotoxicity, BREAST MB-468 (MB-468) | cytotoxicity, BREAST MCF-7 (MCF-7) | cytotoxicity, COLON HT-29 (HT-29) | cytotoxicity, COLON SW1116 (SW1116) | cytotoxicity, COLON SW620 (SW620) | cytotoxicity, LUNG NCI H460 (NCI H460) | cytotoxicity, OVARY OVCAR (OVCAR) | cytotoxicity, PROSTATE PC-3 (PC-3) | cytotoxicity, NORMAL CCD27sk (CCD 27sk) | cytotoxicity, NORMAL Hs888 Lu (Hs888 Lu)
1 | C[C@@H]1C[C@@H]([C@H](O)CC2CC(=O)NC(=O)C2)C(=O)[C@@H](C)C1 [Cycloheximide] | 49% | 24% | 56% |  |  |  |  |  |  |  |  |  |  | 
2 | [N-]=[N+]=[N-].[Na+] [NaN3] |  |  |  | +++ | +++ | +++ | +++ | − | − | +++ | +++ | +++ | − | −
